Measured values taken from PubChem BioAssay AID1259407 (Chemical Carcinogenesis Research Information System (CCRIS), 2018).
Activity calls are given as the source filed them. How the calls were made is not given here.

Tested on: CCRIS mutagenicity, Ames/micronucleus/aberration tests
Assay: CCRIS mutagenicity studies
[1] = Test System: AMES SALMONELLA TYPHIMURIUM, Strain/Indicator: TA100, Metabolic Activation: RAT, LIVER, S-9, AROCLOR 1254, Method: STANDARD PLATE
[2] = Test System: AMES SALMONELLA TYPHIMURIUM, Strain/Indicator: TA1535, Metabolic Activation: RAT, LIVER, S-9, AROCLOR 1254, Method: STANDARD PLATE
[3] = Test System: AMES SALMONELLA TYPHIMURIUM, Strain/Indicator: TA1537, Metabolic Activation: RAT, LIVER, S-9, AROCLOR 1254, Method: STANDARD PLATE
[4] = Test System: AMES SALMONELLA TYPHIMURIUM, Strain/Indicator: TA1538, Metabolic Activation: RAT, LIVER, S-9, AROCLOR 1254, Method: STANDARD PLATE
[5] = Test System: Ames Salmonella typhimurium, Strain/Indicator: TA98, Metabolic Activation: None, Method: Standard plate

`Cc1ccc2cc3c(ccc4ccccc43)c3c2c1CC3` was tested, and the mutagenic call (End Point: In vivo mutagenicity, Test System: Lung, Species: Rat, Strain/Sex: Big Blue/male, Route: Intraperitoneal) was “active; positive (11-fold increase in mutant frequency and an increase in transversion t”, the mutagenic call (Test System: AMES SALMONELLA TYPHIMURIUM, Strain/Indicator: TA98, Metabolic Activation: RAT, BLADDER, S-9, PCB, Method: FLUCTUATION TEST) was “inactive; negative” and the mutagenic call (Test System: AMES SALMONELLA TYPHIMURIUM, Strain/Indicator: TA98, Metabolic Activation: RAT, LIVER, S-9, PHENOBARBITAL, Method: STANDARD PLATE) was “active; positive”. For the same compound, the mutagenic call (Test System: AMES SALMONELLA TYPHIMURIUM, Strain/Indicator: TA100, Metabolic Activation: MOUSE, LIVER, MICROSOMES, BENZO[E]PYRENE AND TCDD, Method: STANDARD PLATE) was “active; positive”, the mutagenic call (Test System: AMES SALMONELLA TYPHIMURIUM, Strain/Indicator: TA100, Metabolic Activation: RAT, BLADDER, S-9, PCB, Method: FLUCTUATION TEST) was “active; positive” and the mutagenic call [1] was “active; positive”. For the same compound, the mutagenic call [2] was “active; positive”, the mutagenic call [3] was “active; positive” and the mutagenic call (Test System: AMES SALMONELLA TYPHIMURIUM, Strain/Indicator: TA1538, Metabolic Activation: MOUSE, LIVER, S-9, PHENOBARBITAL, Method: PREINCUBATION) was “active; positive”. The mutagenic call [4] was “active; positive”, the mutagenic call (Test System: AMES SALMONELLA TYPHIMURIUM, Strain/Indicator: TA1538, Metabolic Activation: RAT, LIVER, S-9, PHENOBARBITAL, Method: STANDARD PLATE) was “active; positive” and the mutagenic call [5] was “active; positive (animals administered an onion (1% or 5%) diet for 1 month before the m”. The mutagenic call (Test System: Ames Salmonella typhimurium, Strain/Indicator: TA98, Metabolic Activation: S-9, Method: Standard plate) was “active; positive (animals administered an onion (1% or 5%) diet for 1 month before the m”, the mutagenic call (Test System: Ames Salmonella typhimurium, Strain/Indicator: TA100, Metabolic Activation: None, Method: Standard plate) was “active; positive (animals administered an onion (1% or 5%) diet for 1 month before the m” and the mutagenic call (Test System: Ames Salmonella typhimurium, Strain/Indicator: TA100, Metabolic Activation: S-9, Method: Standard plate) was “active; positive (animals administered an onion (1% or 5%) diet for 1 month before the m”. For the same compound, the mutagenic call (Test System: CHINESE HAMSTER OVARY, Strain/Indicator: CHO-K1-BH4 (HGPRT), Metabolic Activation: RAT, LIVER, S-9, AROCLOR, Method: SUSPENSION/PLATE) was “active; positive”, the mutagenic call (Test System: CHINESE HAMSTER V-79, Strain/Indicator: V-79/6-THIOGUANINE, Metabolic Activation: RAT, LIVER, S-9, PHENOBARBITAL, Method: STANDARD PLATE) was “active; positive” and the mutagenic call (Test System: CHINESE HAMSTER V-79, Strain/Indicator: V-79/8-AZAGUANINE, Metabolic Activation: CELL-MEDIATED, Method: STANDARD PLATE) was “active; positive”. The mutagenic call (Test System: E. COLI, Strain/Indicator: WP2 UVRA, Metabolic Activation: HAMSTER, LIVER, S-9, AROCLOR 1254, Method: STANDARD PLATE) was “inactive; negative”, the mutagenic call (Test System: E. COLI, Strain/Indicator: WP2 UVRA, Metabolic Activation: HAMSTER, LIVER, S-9, Method: STANDARD PLATE) was “inactive; negative” and the mutagenic call (Test System: E. COLI, Strain/Indicator: WP2 UVRA, Metabolic Activation: MOUSE, LIVER, S-9, AROCLOR 1254, Method: STANDARD PLATE) was “inactive; negative”. The mutagenic call (Test System: E. COLI, Strain/Indicator: WP2 UVRA, Metabolic Activation: MOUSE, LIVER, S-9, Method: STANDARD PLATE) was “inactive; negative”, the mutagenic call (Test System: E. COLI, Strain/Indicator: WP2 UVRA, Metabolic Activation: NONE, Method: STANDARD PLATE) was “inactive; negative” and the mutagenic call (Test System: E. COLI, Strain/Indicator: WP2 UVRA, Metabolic Activation: RAT, LIVER, S-9, AROCLOR 1254, Method: STANDARD PLATE) was “inactive; negative”. The mutagenic call (Test System: E. COLI, Strain/Indicator: WP2 UVRA, Metabolic Activation: RAT, LIVER, S-9, Method: STANDARD PLATE) was “inactive; negative”, the mutagenic call (Test System: UDS HUMAN FIBROBLASTS, Strain/Indicator: THY INCORP (NON-S-PHASE), Metabolic Activation: NONE, Method: LIQUID SCINTILLATION COUNTING) was “active; positive” and the mutagenic call (Test System: UDS RODENT HEPATOCYTES, Strain/Indicator: THY INCORP (NON-S-PHASE), Method: LIQUID SCINTILLATION COUNTING) was “active; positive”. The mutagenic call (Test System: UDS RODENT PRIMARY CELLS, Strain/Indicator: THY INCORP (NON-S-PHASE), Metabolic Activation: NONE, Method: AUTORADIOGRAPHY) was “active; positive”.

`CCCCCCCCCCCCC1CCC1=O` (configuration not stated) was tested, and the mutagenic call (End Point: In vitro micronucleus, Test System: Human TK6 lymphoblasts, Metabolic Activation: None) was “active; positive (at highest dose)”, the mutagenic call (End Point: In vitro micronucleus, Test System: Human TK6 lymphoblasts, Metabolic Activation: Rat, Liver, S-9, Aroclor (1%)) was “active; positive (at highest dose)” and the mutagenic call (Test System: Ames Salmonella typhimurium, Strain/Indicator: TA98, Metabolic Activation: None, Method: Microtiter plate-based Miniscreen assay) was “inactive; negative”. The mutagenic call (Test System: Ames Salmonella typhimurium, Strain/Indicator: TA98, Metabolic Activation: Rat, Liver, S-9, Aroclor 1254 (5%), Method: Microtiter plate-based Miniscreen assay) was “inactive; negative”, the mutagenic call (Test System: Ames Salmonella typhimurium, Strain/Indicator: TA100, Metabolic Activation: None, Method: Microtiter plate-based Miniscreen assay) was “inactive; negative” and the mutagenic call (Test System: Ames Salmonella typhimurium, Strain/Indicator: TA100, Metabolic Activation: Rat, Liver, S-9, Aroclor 1254 (5%), Method: Microtiter plate-based Miniscreen assay) was “inactive; negative”. For the same compound, the mutagenic call (Test System: Ames Salmonella typhimurium, Strain/Indicator: TA1535, Metabolic Activation: None, Method: Microtiter plate-based Miniscreen assay) was “inactive; negative”, the mutagenic call (Test System: Ames Salmonella typhimurium, Strain/Indicator: TA1535, Metabolic Activation: Rat, Liver, S-9, Aroclor 1254 (5%), Method: Microtiter plate-based Miniscreen assay) was “inactive; negative” and the mutagenic call (Test System: Ames Salmonella typhimurium, Strain/Indicator: TA1537, Metabolic Activation: None, Method: Microtiter plate-based Miniscreen assay) was “inactive; negative”. The mutagenic call (Test System: Ames Salmonella typhimurium, Strain/Indicator: TA1537, Metabolic Activation: Rat, Liver, S-9, Aroclor 1254 (5%), Method: Microtiter plate-based Miniscreen assay) was “inactive; negative”.

`CC(C)NNC(=O)c1ccncc1` was tested, and the mutagenic call (Test System: AMES SALMONELLA TYPHIMURIUM, Strain/Indicator: TA98, Metabolic Activation: NONE, Method: STANDARD PLATE) was “inactive; negative”, the mutagenic call (Test System: AMES SALMONELLA TYPHIMURIUM, Strain/Indicator: TA98, Metabolic Activation: RAT, LIVER, S-9, AROCLOR 1254, Method: STANDARD PLATE) was “inactive; negative” and the mutagenic call (Test System: AMES SALMONELLA TYPHIMURIUM, Strain/Indicator: TA100, Metabolic Activation: NONE, Method: STANDARD PLATE) was “inactive; negative”. For the same compound, the mutagenic call [1] was “inactive; negative”, the mutagenic call (Test System: AMES SALMONELLA TYPHIMURIUM, Strain/Indicator: TA1535, Metabolic Activation: NONE, Method: STANDARD PLATE) was “inactive; negative” and the mutagenic call [2] was “inactive; negative”. For the same compound, the mutagenic call (Test System: AMES SALMONELLA TYPHIMURIUM, Strain/Indicator: TA1537, Metabolic Activation: NONE, Method: STANDARD PLATE) was “inactive; negative” and the mutagenic call [3] was “inactive; negative”.

`CC[N+](CC)=c1ccc2nc3c(cc(N)c4ccccc43)oc-2c1` was tested, and the mutagenic call [1] was “active; positive”, the mutagenic call (Test System: AMES SALMONELLA TYPHIMURIUM, Strain/Indicator: TA1538, Metabolic Activation: NONE, Method: STANDARD PLATE) was “inactive; negative” and the mutagenic call [4] was “active; positive”.

For `O=c1c(O[C@@H]2O[C@H](CO)[C@H](O)[C@H](O)[C@H]2O)c(-c2ccc(O)c(O)c2)oc2cc(O)cc(O)c12`, the mutagenic call [5] was “inactive; negative” and the mutagenic call (Test System: Ames Salmonella typhimurium, Strain/Indicator: TA98, Metabolic Activation: Rat, Liver, S-9, Aroclor 1254, Method: Standard plate) was “inactive; negative”.

In the case of `CN1CCN(N=O)CC1`, the mutagenic call (Test System: CHINESE HAMSTER V-79, Strain/Indicator: V-79/8-AZAGUANINE, Metabolic Activation: RAT, LIVER, S-15, PHENOBARBITAL, Method: STANDARD PLATE) is reported as “active; positive”.
